Source: PMC9412414, “A Study on Repositioning Nalidixic Acid via Lanthanide Complexation: Synthesis, Characterization, Cytotoxicity and DNA/Protein Binding Studies” (Pharmaceuticals, 2022)
Where two headings read alike, the source gives them in different places.

Experiments:
[1] = test system: LoVo (human colorectal adenocarcinoma) cell line; assay: MTS cytotoxicity assay, LoVo cell line; format: cell-based; details: 48 h of incubation
Protocol: (§1) LoVo, MDA-MB-231 and HUVEC human cell lines were purchased from American Type Culture Collection (ATCC). Cells were routinely maintained in culture either in culture flasks or seeded in plates, using Dulbecco’s modified Eagle medium/nutrient mixture F-12 (DMEM:F12) medium supplemented with […], 10% fetal calf serum (Sigma Aldrich, St. Louis, MO, USA), 100 units/mL penicillin, 100 μg/mL streptomycin and incubated at 37 °C in 5% CO2 humidified atmosphere.
(§2) Cytotoxicity studies were performed in 96-well microtiter plates with flat bottoms (Falcon, Teterboro, NJ, USA) using the CellTiter 96 Aqueous One Solution Cell Proliferation Assay (Promega, Madison, WI, USA), an MTS-based colorimetric assay. Metabolically active cells have the ability to reduce MTS [3-(4,5-dimethylthiazol-2-yl)-5-(3-carboxymethoxyphenyl)-2-(4-sulfophenyl)-2H-tetrazolium, inner salt], a yellow tetrazolium salt, to a colored formazan that is soluble in the culture medium. Briefly, 15 × 10^3 cells per well were cultured in 100 µL culture medium. After 24 h, adherent cells were treated with different concentrations of the studied compounds, as well as adriamycin (Adr) and cisplatin (Cis-Pt), used as positive controls for 24 h and 48 h, respectively. Each well was then filled with 20 µL of reagent containing MTS and PES (phenazine ethosulfate, a cationic dye with excellent chemical stability that binds to MTS and produces a stable solution). The resulting formazan was determined using a Tecan GENios Spectrophotometer (Tecan US, Durham, NC, USA) by measuring the absorbance at λ = 492 nm after incubation for 4 h at 37 °C with moderate agitation every 15 min. The cytotoxicity tests were performed in triplicate, with results reported as mean values with standard deviations (SD). The cytotoxicity of DMSO was also investigated under the same conditions, and no harmful effect was found at doses less than 1%.
(§3) Data were expressed as cell viability by comparing with untreated cells considered 100% viable, using the following formula:(1) Cell viability (%)=absorbance of treated cells−absorbance of culture medium/absorbance of untreated cells−absorbance of culture medium

[2] = test system: HUVEC (human umbilical vein endothelial cells); assay: MTS cytotoxicity assay, HUVEC normal cell line; format: cell-based; details: 24 h of incubation
Protocol: as §1, §2, §3

EB–DNA system (CT-DNA) = assay: Competitive binding assay with ethidium bromide (EB) through fluorescence spectroscopy; parameters: species or system calf; details: EB 2 µM, CT-DNA 10 µM, compound 0–40 µM
Protocol: The fluorescence spectra were recorded using 1.6 mL samples containing 10 µM CT-DNA, 2 µM EB, and increasing amounts (0–40 µM with an increment of 5 µM) of tested compounds; the samples were prepared by keeping the components in contact for 10 min at room temperature, under continuous stirring and in the dark. The excitation wavelength was 500 nm, and the spectra were recorded between the wavelengths of 520 and 800 nm. A Jasco FP 6500 fluorometer and quartz cells with a 1 cm route length were employed. The classical Stern–Volmer equation (Equation (3)) was used to interpret the obtained data:(3) F0/F=1+KSV·[Q] F0 and F are the fluorescence intensities of the EB–DNA samples in the absence and presence of the tested compounds, respectively; KSV is the Stern–Volmer constant, which was computed as the slope from the plot of F0/F vs. [Q], where [Q] is the chemical concentration.
The binding ratio was plotted against the logarithm of the concentration in comparison with a control sample exposed solely to DMSO. (4) y=A1+(A2−A1)×x^n/K50^n+x^n
For fitting data points, the modified Hill function with offset (Origin®) was used: where y represents the binding ratio (F/F0), x represents the concentration, A1 represents the minimum of y values, A2 represents the maximum of y values, K50 represents the concentration corresponding to 50% binding or the half maximum binding constant, and n represents the Hill coefficient.

apotransferrin (apo-Tf) = biological target: T1, apotransferrin (apo-Tf) (Homo sapiens, UniProt P02787); assay: Apo-Tf fluorescence quenching binding study; details: for fa (fraction of fluorophore accessible to the quencher), Apo-Tf / Ksv* (Stern–Volmer quenching constant), Apo-Tf: compound 0–8 µM; for Ksv* (Stern–Volmer quenching constant), Apo-Tf: Tris-HCl pH 7.4, 298 K; for Kq (bimolecular quenching constant), Apo-Tf: from Ksv* with τ0 = 10^−8 s
T1 construct: purchased Sigma-Aldrich Chemical Co. (Schnelldorf, Germany)
T1 sequence (P02787 20-698): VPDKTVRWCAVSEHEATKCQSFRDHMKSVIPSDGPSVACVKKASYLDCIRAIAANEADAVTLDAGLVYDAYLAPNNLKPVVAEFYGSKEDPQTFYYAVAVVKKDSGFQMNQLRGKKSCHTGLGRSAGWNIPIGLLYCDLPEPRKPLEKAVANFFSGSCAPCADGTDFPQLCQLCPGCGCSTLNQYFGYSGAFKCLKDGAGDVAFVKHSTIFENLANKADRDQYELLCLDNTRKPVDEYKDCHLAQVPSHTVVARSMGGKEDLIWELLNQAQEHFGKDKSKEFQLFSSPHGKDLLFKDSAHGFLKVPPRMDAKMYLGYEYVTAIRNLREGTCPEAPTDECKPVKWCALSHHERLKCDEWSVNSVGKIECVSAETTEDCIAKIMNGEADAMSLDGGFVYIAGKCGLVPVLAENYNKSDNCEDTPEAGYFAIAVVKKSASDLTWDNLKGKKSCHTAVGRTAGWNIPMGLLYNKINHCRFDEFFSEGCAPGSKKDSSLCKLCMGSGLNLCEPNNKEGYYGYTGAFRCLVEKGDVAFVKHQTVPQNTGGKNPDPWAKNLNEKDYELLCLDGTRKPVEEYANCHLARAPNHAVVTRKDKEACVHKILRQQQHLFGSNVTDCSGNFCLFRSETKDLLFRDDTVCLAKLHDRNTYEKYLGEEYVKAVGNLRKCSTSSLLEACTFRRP
Protocol: (§4) Using a Jasco FP 6500 spectrofluorometer (Jasco, Tokyo, Japan) and quartz cells with a 1 cm path length, the fluorescence spectra of HSA and apo-Tf were recorded in the presence and absence of the examined substances. The 2.5 mL samples containing 2.5 µM HSA or 1 µM apo-Tf were titrated by adding 5 µL of the tested substance at a time, a volume that corresponded to a 1 µM increase in concentration. The concentration range used for these experiments varied from 0 to 8 µM. The relevant spectra were collected in the emission domains of 300–500 nm (HSA) and 305–500 nm (apo-Tf) after 3 min of continuous stirring at room temperature, using excitation wavelengths of 280 nm (HSA) and 295 nm (apo-Tf).
(§5) Experiments were conducted in a pH = 7.4 Tris-HCl buffer (5 mM Tris-HCl/50 mM NaCl for HSA and 5 mM Tris-HCl/50 mM NaCl/25 mM NaHCO3 for apo-Tf).
(§6) The following modified Stern–Volmer equation has been used to calculate the Stern–Volmer constant, which will be denoted as KSV* in order to differentiate it from the Stern–Volmer constant calculated for the DNA binding experiments:(5) F0/F0−F=1/faKsv*[Q]+1/fa where F0 and F are the fluorescence intensities in the absence and presence of the tested compounds, fa is the fraction of fluorophore accessible to the quencher (the tested compounds), [Q] is the quencher concentration, and KSV* (M^−1) is the Stern–Volmer constant; the plot of F0/(F0 − F) against 1/[Q] yields KSV as the slope and fa as the y intercept.
(§7) Subsequently, the bimolecular quenching rate constant was obtained by using Equation (6):(6) Ksv^*=Kqτ0
(§8) Kq (M^−1·s^−1) is the bimolecular quenching rate constant and τ0 is the fluorophore’s lifespan in the absence of the investigated chemicals (10^−8 s). The value of Kq can be used to assess whether the quenching phenomena have an underlying static or dynamic mechanism.
(§9) Using the following equation, the affinity constant (Ka) and the number of binding sites (n) have been calculated: (7) lgF0−F/F=lgKa+nlg[Q]
(§10) The binding affinity, Kd, can be calculated using the quadratic function below:(8) F0−F/F0−Fb=[P]t+[Q]+Kd−([P]t+[Q]+Kd)^2−4[P]t[Q]/2[P]t where F and F0 are the fluorescence intensities of the protein in the presence and absence of the quencher, respectively, Fb is the fluorescence of a fully bound protein–quencher, [P]t is the total concentration of the protein, and [Q] is the concentration of the added quencher. Each binding isotherm was plotted against the total quencher concentration in solution as a function of bound to free protein (F/F0).
(§11) The isotherms were then fitted using the nonlinear regression function below:(9) F/F0= F1+(F2−F1)Kdn/Kdn+[Q]^n where n represents the Hill coefficient, F1 and F2 are the horizontal and vertical asymptotes, respectively. The Kd in Equation (9) is derived from the quadratic binding function (Equation (8)).
(§12) Data were collected in triplicate, averaged, and expressed as mean value ± standard deviation (SD). All graph fitting models were defined and built using OriginPro® 2018.

[3] = biological target: T2, human serum albumin (HSA) (Homo sapiens, UniProt P02768); assay: HSA fluorescence quenching binding study; details: for fa (fraction of fluorophore accessible to the quencher), HSA / Ksv* (Stern–Volmer quenching constant), HSA: compound 0–8 µM; for Ksv* (Stern–Volmer quenching constant), HSA: Tris-HCl pH 7.4, 298 K; for Kq (bimolecular quenching constant), HSA: from Ksv* with τ0 = 10^−8 s
T2 construct: purchased Sigma-Aldrich Chemical Co. (Schnelldorf, Germany)
T2 sequence (P02768 25-609): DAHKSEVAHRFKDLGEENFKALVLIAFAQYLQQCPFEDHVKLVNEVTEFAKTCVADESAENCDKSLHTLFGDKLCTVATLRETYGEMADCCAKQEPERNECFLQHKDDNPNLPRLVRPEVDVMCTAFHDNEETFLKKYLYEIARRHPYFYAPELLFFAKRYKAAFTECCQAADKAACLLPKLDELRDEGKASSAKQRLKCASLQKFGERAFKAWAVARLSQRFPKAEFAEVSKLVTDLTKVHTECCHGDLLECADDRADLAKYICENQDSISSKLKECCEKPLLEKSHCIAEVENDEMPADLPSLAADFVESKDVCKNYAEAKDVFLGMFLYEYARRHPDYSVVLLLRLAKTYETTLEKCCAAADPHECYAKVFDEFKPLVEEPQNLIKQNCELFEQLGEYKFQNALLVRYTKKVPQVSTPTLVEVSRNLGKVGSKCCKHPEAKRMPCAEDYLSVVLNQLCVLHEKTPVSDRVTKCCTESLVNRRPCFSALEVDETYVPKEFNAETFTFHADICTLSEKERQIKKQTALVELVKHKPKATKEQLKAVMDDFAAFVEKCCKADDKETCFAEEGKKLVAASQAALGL
Protocol: as §4, §5, §6, §7, §8, §9, §10, §11, §12

[4] = apo-Tf 1 µM, 298 K, read-out: Kd (dissociation constant), Apo-Tf
[5] = HSA 2.5 µM, 298 K, read-out: Kd (dissociation constant), HSA

Row | SMILES | EB Displacement Assay K50 (half maximum binding constant) (EB–DNA system (CT-DNA)) | KSV, Stern–Volmer quenching constant (EB–DNA) (EB–DNA system (CT-DNA)) | n1 (Number of Binding Sites), Apo-Tf (apotransferrin (apo-Tf); apo-Tf 1 µM, 298 K) | n2 (Hill Coefficient), Apo-Tf (apotransferrin (apo-Tf); apo-Tf 1 µM, 298 K) | Kd (apotransferrin (apo-Tf); [4]) | fa (fraction of fluorophore accessible to the quencher), Apo-Tf (apotransferrin (apo-Tf); apo-Tf 1 µM, 298 K) | Ksv* (Stern–Volmer quenching constant), Apo-Tf (apotransferrin (apo-Tf); apo-Tf 1 µM) | Kq (bimolecular quenching constant), Apo-Tf (apotransferrin (apo-Tf); 298 K) | n1 (Number of Binding Sites), HSA ([3]; HSA 2.5 µM, 298 K) | n2 (Hill Coefficient), HSA ([3]; HSA 2.5 µM, 298 K) | Kd [3, 5] | fa (fraction of fluorophore accessible to the quencher), HSA ([3]; HSA 2.5 µM, 298 K) | Ksv* (Stern–Volmer quenching constant), HSA ([3]; HSA 2.5 µM) | Kq (bimolecular quenching constant), HSA ([3]; 298 K) | other results
1 | CCn1cc(C(=O)O)c(=O)c2ccc(C)nc21 [Nalidixic acid] | 50.41 ± 9.60 µM | 9.87 ± 0.11 M^−1 (×10^3) | 0.79 ± 0.02 | 1.55 ± 0.37 | 6.55 ± 2.11 µM | 0.48 ± 0.03 | (1.02 ± 0.09) × 10^5 M^−1 | 1.02e+13 M⁻¹ s⁻¹ | 1.03 ± 0.01 | 1.33 ± 0.29 | 5.69 ± 1.44 µM | 1.06 ± 0.02 | (1.25 ± 0.06) × 10^5 M^−1 | 1.25e+13 M⁻¹ s⁻¹ | IC50 (μM) LoVo [1]: not toxic; IC50 ([1]; Homo sapiens): > 200 µM; IC50 ([2]; Homo sapiens): > 200 µM; Kd (apotransferrin (apo-Tf); apo-Tf 1 µM, 298 K, read-out: Ka (association binding constant), Apo-Tf): 323 µM; Kd ([3]; HSA 2.5 µM, 298 K, read-out: Ka (association binding constant), HSA): 4.57 µM
2 | CCn1cc(C(=O)[O-])c(=O)c2ccc(C)nc21.CCn1cc(C(=O)[O-])c(=O)c2ccc(C)nc21.O.O.O.O.[OH-].[Sm+3] [Sm(nal)2, Sm(C12H11N2O3)2(OH)(H2O)·3H2O] | 31.35 ± 4.21 µM | 10.24 ± 0.22 M^−1 (×10^3) | 1.01 ± 0.05 | 1.71 ± 0.31 | 6.16 ± 1.27 µM | 0.79 ± 0.02 | (1.16 ± 0.06) × 10^5 M^−1 | 1.16e+13 M⁻¹ s⁻¹ | 1.08 ± 0.01 | 1.34 ± 0.09 | 3.6 ± 0.11 µM | 1.05 ± 0.02 | (2.50 ± 0.12) × 10^5 M^−1 | 2.5e+13 M⁻¹ s⁻¹ | IC50 [1]: 92.4 ± 16 µM; IC50 [2]: > 200 µM; Ka (association binding constant), Apo-Tf (apotransferrin (apo-Tf); apo-Tf 1 µM, 298 K): (10.17 ± 6.14) × 10^4 M^−1; quenching effect on apo-Tf fluorescence peak (apotransferrin (apo-Tf); apo-Tf 1 µM, compound up to 8 µM): 35%; Ka (association binding constant), HSA ([3]; HSA 2.5 µM, 298 K): (8.25 ± 1.62) × 10^5 M^−1; quenching effect on HSA fluorescence peak ([3]; HSA 2.5 µM, compound up to 8 µM): ~ 73%
